The results in this text go back to article PMC4072591, “FGFR2 Is Amplified in the NCI-H716 Colorectal Cancer Cell Line and Is Required for Growth and Survival” (PLoS ONE, 2014).

The assay has as its target T1, FGFR2 (Homo sapiens, UniProt P21802).
T1 construct: endogenous amplified FGFR2 in NCI-H716 cells
Nature of the assay: FGFR2 Y653/[…] phosphorylation in NCI-H716 cells, western blot quantitation. Type of assay: cell-based. For orientation: A western blot detects proteins with antibodies after separation by electrophoresis.

T1 sequence (P21802 22-821): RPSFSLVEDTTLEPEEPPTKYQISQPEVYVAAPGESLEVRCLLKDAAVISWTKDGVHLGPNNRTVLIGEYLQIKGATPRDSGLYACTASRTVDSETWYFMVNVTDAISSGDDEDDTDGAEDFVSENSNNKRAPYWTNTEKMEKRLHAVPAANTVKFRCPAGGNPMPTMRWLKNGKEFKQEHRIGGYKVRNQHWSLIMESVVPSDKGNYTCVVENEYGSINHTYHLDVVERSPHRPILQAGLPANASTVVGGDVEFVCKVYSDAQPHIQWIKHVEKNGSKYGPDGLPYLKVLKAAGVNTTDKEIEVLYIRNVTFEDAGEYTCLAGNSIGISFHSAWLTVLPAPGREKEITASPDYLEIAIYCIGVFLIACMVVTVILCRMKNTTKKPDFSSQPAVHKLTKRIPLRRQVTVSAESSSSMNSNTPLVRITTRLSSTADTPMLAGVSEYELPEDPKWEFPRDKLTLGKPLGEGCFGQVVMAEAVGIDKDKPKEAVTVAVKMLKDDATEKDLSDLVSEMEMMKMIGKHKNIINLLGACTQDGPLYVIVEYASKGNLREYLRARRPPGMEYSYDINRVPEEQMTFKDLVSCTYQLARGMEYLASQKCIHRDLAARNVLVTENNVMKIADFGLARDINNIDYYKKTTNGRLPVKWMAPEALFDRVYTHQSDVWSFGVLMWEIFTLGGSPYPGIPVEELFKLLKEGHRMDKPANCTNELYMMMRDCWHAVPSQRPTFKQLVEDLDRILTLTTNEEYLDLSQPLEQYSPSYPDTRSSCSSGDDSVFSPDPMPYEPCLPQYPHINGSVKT

As to `CN(C[C@@H]1COCCO1)S(=O)(=O)Nc1ccc2ccc3ncc(-c4cnn(C)c4)cc3c(=O)c2c1` [MK2461], the half-inhibitory concentration (IC50) was 165 nM.

The IC50 is the point on the concentration scale where inhibition reaches its midpoint. A lower IC50 goes with higher potency.
